The text below walks through data of patent publication US20230257359A1, “4-ARYLQUINAZOLINE DERIVATIVES AS METHIONINE ADENOSYLTRANSFERASE 2A INHIBITORS” (IDEAYA BIOSCIENCES, INC., priority 2020, published 2023).

Bounds are passed on as bounds.

Test [1] deals with T1, hMAT2A (Homo sapiens, UniProt P31153). Put plainly: Malachite Green Assay (MAT2A enzyme inhibition). Conditions: hMAT2A 50 nM, substrates 500 uM each, 1 hour. Type of test: biochemical. The arrangement: amino acids 1-395; purchased Cepter. How it is done: (§1) The ability of the compound of present disclosure to inhibit MAT2A enzyme was determined using the Malachite Green or Phosphate Sensor Fluorescence Assay described below.
Biologic Example A. Malachite Green Assay
Enzyme: MAT2A • hMAT2A: 50 nM, Cepter, 10 mg/mL (234 μM), amino acids 1-395 • Substrates: 500 uM each • Reaction time: 1 hour
L-methionine Substrate: Alfa Aesar catalog #J61904
ATP Substrate: Alfa Aesar cat #J60336
Malachite Green Detection Reagent: Millipore Sigma catalog #MAK307-1KT
Assay buffer: 50 mM Tris, pH 7.5/50 mM KCl/10 mM MgCl2/0.01% Brij-35/1 mM DTT/0.1% BGG
0% inhibition control: DMSO
100% inhibition control: No enzyme
5 μL of 3× final concentration test compounds in DMSO or DMSO were transferred to the appropriate wells of a microtiter plate and the plate was centrifuged at 1000 rpm for 1 minute. 5 μL of 3× final concentration MAT2A enzyme in assay buffer or assay buffer alone was transferred to the appropriate wells and the plate was centrifuged at 1000 rpm for 1 minute. The plate was incubated at room temperature for 15 minutes and then 5 μL of 3× the L-methionine and ATP substrate mixture in assay buffer was transferred to all the test wells. The plate was centrifuged at 1000 rpm for 1 minute and then incubated at room temperature for 1 hour. 5 μL of malachite green detection reagent was added to all the test wells and the plate was centrifuged at 1000 rpm for 1 minute and then incubated at room temperature for 30 minutes. The plate was read for absorbance at 620 nm on a plate reader (e.g., Infinite M1000). The high control (DMSO) with high absorbance represents no inhibition of enzymatic reaction while the low control (no enzyme) with low absorbance represents full inhibition of enzymatic reaction.

Test [2] concerns the target T1, hMAT2A. The test can be described thus: Phosphate Sensor Fluorescence Assay (MAT2A enzyme inhibition). It counts as biochemical. The arrangement: Human MAT2A: Cepter, amino acids 1-395; purchased Cepter clone ID 329, lot 00023-123; clone ID 334, lot 00023-148. To be noted: L-methionine and ATP 500 uM, 1 hour. Here is the method: as §1
Biologic Example B. Phosphate Sensor Fluorescence Assay
MAT2A enzyme is incubated with a test compound in DMSO or DMSO and its substrates (L-methionine and ATP) in a microtiter plate. The enzymatic reaction is stopped by the addition of Working Phosphate Sensor Mixture. The plate is analyzed for fluorescence at 450 nm. The high control (DMSO with enzyme and its substrates) gives high fluorescence which represents no inhibition of enzymatic activity while the low control (DMSO with MAT2A substrates and no enzyme) gives low fluorescence which represents full inhibition of enzymatic activity.
Human MAT2A: Cepter, amino acids 1-395
Assay Buffer: 50 mM Tris, pH 7.5/50 mM KCl/10 mM MgCl2/0.01% Brij-35/1 mM DTT/0.1% BGG/40 nM PNP/6 uM 7-MEG
MAT2A: 10 nM for Cepter clone ID 329, lot 00023-123 before the addition of Working Phosphate Sensor Mixture • 5 nM for Cepter clone ID 334, lot 00023-148 before the addition of Working Phosphate Sensor Mixture
L-methionine: 500 uM before the addition of Working Phosphate Sensor Mixture
ATP: 500 uM before the addition of Working Phosphate Sensor Mixture
For the assay, a mixture of 1 mM L-methionine/1 mM ATP (2× final pre-stopped concentration) in assay buffer; MAT2A (2× final pre-stopped concentration) in Assay Buffer and Working Phosphate Sensor Mixture (1.5 uM Phosphate Sensor/30 mM EDTA in Assay Buffer, which is 3× final concentrations) were prepared. Test compounds or DMSO were added to the appropriate well suing D300e digital dispenser. 5 μl/well of Assay Buffer was added to the wells corresponding to the negative control and 5 μl/well of MAT2A was added to all the wells except for those corresponding to the negative control. After incubating the plate at room temperature for 15 minutes, 5 μl/well of the 1 mM L-methionine/1 mM ATP mixture was added to all wells. The plate was centrifuged at 1000 rpm for 1 minute and then incubated at room temperature for 1 hour. 5 μl of the Working Phosphate Sensor Mixture was added to all wells and the plate was centrifuged at 1000 rpm for 1 minute. The plate was read for fluorescence at 450 nm after exciting at 430 nm.
Percent inhibition was calculated in Chemical and Biological Information System (CBIS), (ChemInnovation Software Inc.). Curves were fitted by CBIS as % inhibition vs. log [compound concentration] using a 4-parameter inhibition model.
Fit=(A+((B−A)/(1+((C/x)^D))))

T1 sequence (P31153 whole entry, the tested form may be a part): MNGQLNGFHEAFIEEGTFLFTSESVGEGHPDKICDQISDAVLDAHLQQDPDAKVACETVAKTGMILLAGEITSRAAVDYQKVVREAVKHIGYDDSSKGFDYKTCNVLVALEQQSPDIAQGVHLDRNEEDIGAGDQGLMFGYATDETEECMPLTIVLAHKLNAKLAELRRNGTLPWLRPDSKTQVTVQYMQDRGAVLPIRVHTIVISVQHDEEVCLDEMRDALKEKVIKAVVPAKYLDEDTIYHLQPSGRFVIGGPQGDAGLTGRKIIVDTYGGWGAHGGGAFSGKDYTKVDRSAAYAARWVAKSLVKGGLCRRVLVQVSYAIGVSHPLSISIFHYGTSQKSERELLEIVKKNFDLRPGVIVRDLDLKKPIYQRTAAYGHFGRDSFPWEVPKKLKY

For `O=c1nc(-c2ccccc2)c2cc(Cl)ccc2[nH]1` [1.001, 6-chloro-4-phenylquinazolin-2-ol], the IC50 at hMAT2A [1] (class symbols) was 0.01 to 0.2 µM; on hMAT2A [2] (class symbols), 10 to 200 nM.
The compound `Cc1ccc2[nH]c(=O)nc(-c3ccccc3)c2c1` [1.014, 6-methyl-4-phenylquinazolin-2-ol] came in with an IC50 against hMAT2A [2] (class symbols) of 500 to 1000 nM.
As to `CC(C)(C)OC(=O)N1CC(Oc2nc(-c3ccccc3)c3cc(Cl)ccc3n2)C1` [1.004, tert-butyl 3-((6-chloro-4-phenylquinazolin-2-yl)oxy)azetidine-1-carboxylate], the IC50 at hMAT2A [1] (numeric bound) was > 10 µM; against hMAT2A [2] (numeric bound), > 10000 nM.
On the same counts, the results for `NC(=O)Cc1nc(-c2ccccc2)c2cc(Cl)ccc2n1` [1.011, 2-(6-chloro-4-phenylquinazolin-2-yl)acetamide] are > 10 µM and > 10000 nM.
Turning to `Cc1ccc2nc(O)nc(-c3ccccc3)c2n1` [1.018, 6-methyl-4-phenylpyrido[3,2-d]pyrimidin-2-ol], the IC50 on hMAT2A [2] (class symbols) lay within 1000 to 10000 nM.
Turning to `O=c1nc(-c2ccccc2)c2cc(Br)ccc2[nH]1` [1.013, 6-bromo-4-phenylquinazolin-2-ol], the IC50 on hMAT2A [1] (class symbols) lay within 0.01 to 0.2 µM; on hMAT2A [2] (class symbols), 10 to 200 nM.
As for `Clc1ccc2nc(Cl)nc(-c3ccccc3)c2c1` [1.002, 2,6-dichloro-4-phenylquinazoline], the IC50 was > 10 µM against hMAT2A [1] (numeric bound) and > 10000 nM against hMAT2A [2] (numeric bound).
Turning to `Cc1ccccc1-c1nc(O)nc2ccc(C3CC3)cc12` [1.016, 6-cyclopropyl-4-(o-tolyl)quinazolin-2-ol], at hMAT2A [2] (class symbols), the IC50 lay within 10 to 200 nM.
As to `N#Cc1nc(-c2ccccc2)c2cc(Cl)ccc2n1` [1.005, 6-chloro-4-phenylquinazoline-2-carbonitrile], the values for the IC50 against hMAT2A [1] (numeric bound) and against hMAT2A [2] (numeric bound) were > 10 µM and > 10000 nM, respectively.
On hMAT2A [2] (class symbols), `Cc1ncccc1-c1nc(O)nc2ccc(Br)cc12` [1.020, 6-bromo-4-(2-methylpyridin-3-yl)quinazolin-2-ol] came in with an IC50 of 10 to 200 nM.
Same read-out and setting: in the case of `Oc1nc(-c2cccnc2Cl)c2cc(Br)ccc2n1` [1.003, 6-bromo-4-(2-chloropyridin-3-yl)quinazolin-2-ol] it was 200 to 500 nM.
Take `COC(=O)Cc1nc(-c2ccccc2)c2cc(Cl)ccc2n1` [1.012, methyl 2-(6-chloro-4-phenylquinazolin-2-yl)acetate]: the IC50 on hMAT2A [1] (numeric bound) was > 10 µM; against hMAT2A [2] (numeric bound), > 10000 nM.
`N#CCc1nc(-c2ccccc2)c2cc(Cl)ccc2n1` [1.010, 2-(6-chloro-4-phenylquinazolin-2-yl)acetonitrile]: the figures for the IC50 on hMAT2A [1] (numeric bound) and against hMAT2A [2] (numeric bound) were > 10 µM and > 10000 nM, respectively.
Compound `Oc1nc(-c2cccnc2C(F)(F)F)c2cc(Br)ccc2n1` [1.021, 6-bromo-4-(2-(trifluoromethyl)pyridin-3-yl)quinazolin-2-ol] registered an IC50 against hMAT2A [2] (class symbols) of 1000 to 10000 nM.
Take `CNC(=O)c1nc(-c2ccccc2)c2cc(Cl)ccc2n1` [1.008, 6-chloro-N-methyl-4-phenylquinazoline-2-carboxamide]: the results for the IC50 on hMAT2A [1] (numeric bound) and on hMAT2A [2] (numeric bound) were > 10 µM and > 10000 nM, respectively.
On to `OCc1nc(-c2ccccc2)c2cc(Cl)ccc2n1` [1.009], for which the IC50 on hMAT2A [1] (numeric bound) is > 10 µM; against hMAT2A [2] (numeric bound), > 10000 nM.
Compound `Oc1nc(-c2ccccc2)c2cc(C(F)(F)F)ccc2n1` [1.015, 4-phenyl-6-(trifluoromethyl)quinazolin-2-ol] had an IC50 at hMAT2A [2] (class symbols) of 10 to 200 nM.
In turn, `COc1cc(C2CC2)cc2c(-c3ccccc3)nc(O)nc12` [1.019, 6-cyclopropyl-8-methoxy-4-phenylquinazolin-2-ol] showed a concentration for half-maximal inhibition (IC50) at hMAT2A [2] (class symbols) of 10 to 200 nM.
As to `O=C(O)c1nc(-c2ccccc2)c2cc(Cl)ccc2n1` [1.006, 6-chloro-4-phenylquinazoline-2-carboxylic acid], the IC50 at hMAT2A [2] (numeric bound) is > 10000 nM.
Consider `Oc1nc(-c2cccnc2)c2cc(Br)ccc2n1` [1.017, 6-bromo-4-(pyridin-3-yl)quinazolin-2-ol], for which the IC50 at hMAT2A [2] (class symbols) was 1000 to 10000 nM.

For orientation: IC50 means the concentration needed to halve the response being measured. Read a high IC50 as a need for much substance.
